Reference: the supplement of paper PMC10307832

Key:
Assay in all cases: relative viability (nuclei count vs DMSO), 5 days (fraction); higher = more cells survive
TGX 221 + Luminespib = compound: CC1=CN2C(=O)C=C(N=C2C(=C1)C(C)NC3=CC=CC=C3)N4CCOCC4 [TGX 221] + CCNC(=O)c1noc(-c2cc(C(C)C)c(O)cc2O)c1-c1ccc(CN2CCOCC2)cc1 [Luminespib] (partner 0.01 µM)
Procedure, shortened: (§1)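 Lung cancer cell lines were pin-tool dosed in 1536-well plates on the day after seeding, with either a lone drug or a fixed anchor-drug dose plus five library-drug doses (not always all listed) in √10 steps. Nuclei were counted on 4× images after 5 days. Relative viability is the ratio of treated-well to vehicle-well nuclei counts, with each value a median of duplicate plates.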

TGX 221 + Pictilisib = compound: CC1=CN2C(=O)C=C(N=C2C(=C1)C(C)NC3=CC=CC=C3)N4CCOCC4 [TGX 221] + CS(=O)(=O)N1CCN(Cc2cc3nc(-c4cccc5[nH]ncc45)nc(N4CCOCC4)c3s2)CC1 [Pictilisib] (partner 1 µM)
Procedure, shortened: as §1

[1] = compound: C1=CC=C(C(=C1)C2=CC=C(C=C2)C3=CSC4=C3C(=C(C(=O)N4)C#N)O)O + CC1(C)CCC(c2ccc(Cl)cc2)=C(CN2CCN(c3ccc(C(=O)NS(=O)(=O)c4ccc(N[C@H](CCN5CCOCC5)CSc5ccccc5)c(S(=O)(=O)C(F)(F)F)c4)cc3)CC2)C1 [Navitoclax] (partner 0.5 µM)
Procedure, shortened: as §1

Cell Line | relative viability (TGX 221 + Luminespib; first compound 0.08 µM) | relative viability (TGX 221 + Luminespib; first compound 0.253 µM) | relative viability (TGX 221 + Luminespib; first compound 0.8 µM) | relative viability (TGX 221 + Luminespib; first compound 2.53 µM) | relative viability (TGX 221 + Luminespib; first compound 8 µM) | relative viability (TGX 221 + Pictilisib; first compound 0.08 µM) | relative viability (TGX 221 + Pictilisib; first compound 0.253 µM) | relative viability (TGX 221 + Pictilisib; first compound 0.8 µM) | relative viability (TGX 221 + Pictilisib; first compound 2.53 µM) | relative viability (TGX 221 + Pictilisib; first compound 8 µM) | relative viability ([1]; first compound 0.8 µM) | relative viability ([1]; first compound 2.53 µM) | relative viability ([1]; first compound 8 µM) | relative viability ([1]; first compound 0.08 µM) | relative viability ([1]; first compound 0.253 µM)
LK-2 | 0.17 | 0.2 | 0.187 | 0.214 | 0.207 | 0.583 | 0.782 | 0.597 | 0.515 | 0.659 | 0.895 | 0.87 | 0.683 |  | 
NCI-H520 | 0.23 | 0.196 | 0.188 | 0.205 | 0.211 | 0.335 | 0.237 | 0.276 | 0.251 | 0.296 | 1.2 | 1.11 | 0.891 | 1.08 | 1.15
NCI-H322M | 0.735 | 0.802 | 0.776 | 0.812 | 0.644 | 0.399 | 0.479 | 0.525 | 0.477 | 0.478 | 1.03 | 1.32 | 1.09 | 1.35 | 1.24
NCI-H1395 | 0.684 | 0.721 | 0.603 | 0.514 | 0.453 | 0.571 | 0.531 | 0.572 | 0.676 | 0.523 | 1.15 | 1.05 | 1.12 |  | 1.21
NCI-H2228 | 0.123 | 0.146 | 0.108 | 0.136 | 0.153 | 0.348 | 0.452 | 0.448 | 0.282 | 0.314 | 0.828 | 1.12 | 0.848 | 1 | 1.12
NCI-H2009 | 1.05 | 1.02 | 1.09 | 1.02 | 0.665 | 0.814 | 0.746 | 0.893 | 0.774 | 0.662 | 1.21 | 1.17 | 1.09 | 1.06 | 1.08
LXF-289 | 0.667 | 0.686 | 0.77 | 0.47 | 0.513 | 0.789 | 0.751 | 0.711 | 0.746 | 0.729 | 0.996 | 0.994 | 0.967 | 0.951 | 0.968
NCI-H1975 | 0.151 | 0.2 | 0.138 | 0.2 | 0.145 | 0.282 | 0.289 | 0.271 | 0.229 | 0.285 | 1.15 | 1.22 | 0.731 | 0.958 | 1.25
NCI-H2347 | 0.595 | 0.335 | 0.437 | 0.325 | 0.274 | 0.608 | 0.798 | 0.433 | 0.58 | 0.428 | 0.776 | 0.79 | 0.647 | 0.642 | 0.781
RERF-LC-KJ | 1.13 | 1.13 | 1.26 | 1.21 | 1.02 | 0.488 | 0.57 | 0.551 | 0.466 | 0.481 | 0.976 | 0.715 | 0.811 | 0.777 | 0.902
BEN | 0.26 | 0.234 | 0.4 | 0.378 | 0.332 | 0.552 | 0.519 | 0.521 | 0.503 | 0.456 | 0.0922 | 0.0562 | 0.063 | 0.0583 | 0.07
NCI-H1944 | 0.649 | 0.742 | 0.795 | 0.587 | 0.399 | 0.335 | 0.339 | 0.361 | 0.342 | 0.335 | 1.02 | 1.1 | 1.08 | 1.05 | 1.03
201T | 1.09 | 1.04 | 1.13 | 0.979 | 0.871 |  | 0.715 | 0.689 | 0.63 | 0.621 | 1.19 | 1.18 | 1.26 | 1.25 | 1.18
NCI-H647 | 0.186 | 0.164 | 0.263 | 0.17 | 0.118 | 0.407 | 0.404 | 0.406 | 0.37 | 0.412 | 1.24 | 1.21 | 0.741 | 0.877 | 1.16
NCI-H441 | 0.554 | 0.307 | 0.364 | 0.312 | 0.278 | 0.486 | 0.447 | 0.456 | 0.511 | 0.508 |  | 0.837 | 0.604 |  | 0.644
PC-3 [JPC-3] | 0.584 | 0.651 | 0.693 | 0.73 | 0.681 | 0.642 | 0.73 | 0.772 | 0.748 | 0.754 | 0.849 | 0.765 | 0.808 | 0.913 | 0.816
NCI-H2126 | 0.909 | 0.832 | 0.842 | 0.764 | 0.808 | 0.452 | 0.498 | 0.488 | 0.458 | 0.518 | 0.798 | 0.884 | 0.951 | 0.866 | 0.924
HCC-15 | 0.294 | 0.335 | 0.373 | 0.204 | 0.362 | 0.806 | 0.706 | 0.784 | 0.71 | 0.782 | 0.763 | 0.858 | 0.644 | 0.663 | 0.809
NCI-H2085 | 0.518 | 0.361 | 0.335 | 0.223 | 0.319 | 0.424 | 0.444 | 0.439 | 0.425 | 0.46 | 1.06 | 1.25 | 1.01 | 1.12 | 1.31
LOU-NH91 | 0.332 | 0.358 | 0.323 | 0.317 | 0.31 | 0.568 | 0.532 | 0.528 | 0.53 | 0.531 | 0.658 | 0.638 | 0.551 | 0.693 | 0.722
NCI-H3122 | 0.1 | 0.0831 | 0.0649 | 0.0793 | 0.116 | 0.619 | 0.581 | 0.635 | 0.574 | 0.581 | 1 | 1.01 | 1.07 | 1.01 | 1.11
HOP-62 | 0.919 | 0.951 | 0.981 | 0.88 | 0.632 | 0.694 | 0.742 | 0.544 | 0.682 | 0.689 | 1.04 | 1.18 | 0.922 | 1.22 | 1.1
LU99A | 0.251 | 0.31 | 0.208 | 0.249 | 0.316 | 0.268 | 0.303 | 0.32 | 0.357 | 0.317 | 0.804 | 0.791 | 0.769 | 0.64 | 0.878
HCC-44 |  | 1.09 | 1.03 | 1.04 | 0.734 | 0.648 | 0.571 | 0.615 | 0.555 | 0.541 | 1 | 0.938 | 0.65 | 0.909 | 1.09
NCI-H2405 | 0.622 | 0.533 | 0.599 | 0.623 | 0.47 | 0.36 | 0.499 | 0.426 | 0.398 | 0.366 | 0.887 | 0.776 | 0.767 | 0.924 | 1.04
PC-14 | 0.146 | 0.135 | 0.138 | 0.133 | 0.151 | 0.695 | 0.61 | 0.612 | 0.685 | 0.625 | 1.15 | 1.1 | 0.798 | 0.951 | 0.992
COR-L23 | 0.666 | 0.684 | 0.638 | 0.797 | 0.683 | 0.746 | 0.713 | 0.757 | 0.771 | 0.892 | 1.21 | 1.06 | 0.762 | 1.09 | 0.983
NCI-H1666 | 1.08 | 0.977 | 1.03 | 1.02 | 0.975 | 0.321 | 0.375 | 0.41 | 0.32 | 0.418 | 0.876 | 0.944 | 0.879 | 0.946 | 1.03
